Tests used:
[1] = tested on: JNK; assay: JNK Activation Assay in PANC-1; assay type: cell-based, human; parameters: key: Y = yes; N = No; conditions: at 10 μM
Description: (§1) Cell lines: Human tumor-derived pancreatic cancer cell line Panc-1 and mouse muscle myoblast C2C12 were purchased from American Type Culture Collection and grown in complete DMEM-High Glucose, supplemented with penicillin (100 U/mL), streptomycin (100 μg/mL), and 10% heat-inactivated FBS at 37° C. in a humidified incubator with 5% CO2.
(§2) Method: Cells were plated at 350000 cells/well density in a 12-well plate, allowed 3 hours to adhere to the plate, then starved in the appropriate medium in the presence of 0.5% FBS overnight. The small molecules to be tested were added to the cells in the final concentration of 10 μM in the presence of 0.3% DMSO for 3 hours incubation at 37° C. For IC50 value determination, serial dilutions of compounds were added to cells under the same conditions. […] Protein concentration was assessed by BCA protein assay (Thermo Scientific). Phosphorylation level of JNK was determined by western blot.
(§3) Western blot protocol: Equal amounts of protein (15-50 μg) were separated by SDS-PAGE and transferred to nitrocellulose membranes (Invitrogen by Thermo Fisher Scientific). […] Membranes were blocked with 10% milk and phosphorylation levels of Smad2, Smad3, JNK and p38 were assessed by incubating overnight at 4° C. with the following antibody: Phospho-SAPK/JNK (Thr183/Tyr185), from Cell Signaling Technology. […]

[2] = tested on: MAPK p38; assay: MAPK p38 Activation Assay in PANC-1; assay type: cell-based, human; parameters: key: Y = yes; N = No; conditions: at 10 μM
Description: as §1, with “C02.” for “CO2.”
as §2, with “MAPK p38” for “JNK”
as §3, with “Smad2/Smad3” for “Smad2, Smad3, JNK and p38”, “Phospho-p38 MAPK (Thr180/Tyr182),” for “Phospho-SAPK/JNK (Thr183/Tyr185),”

[3] = tested on: KRas G12D mutant; assay: Ras GTP Binding Domain Inhibition Assay, KRas G12D mutant; conditions: at 20 μM; for KRas G12D mutant + SOS: % inh.: with SOS; for KRas G12D mutant: % inh.: without SOS
In short: (§4)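 Assay steps: protein on Ni-coated plate overnight at 4° C, compound for 3 h at room temperature (20 μM single point or serial dilution for IC50), then 100 nM dye-labelled GTP for 45 min. Washed wells read by fluorescence; Sos was added in the last hour in some runs.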

[4] = tested on: KRas G12C mutant; assay: Ras GTP Binding Domain Inhibition Assay, KRas G12C mutant; conditions: at 20 μM
In short: as §4

[5] = tested on: Rho-A; assay: Ras GTP Binding Domain Inhibition Assay, Rho-A; conditions: at 20 μM
In short: as §4

KRas G12D mutant + SOS: % inh. ([3]; Table 7): C (C = 46-75% inhibition) | KRas G12D mutant + SOS: % inh. ([3]; Table 8): C (C = 46-75% inhibition) | KRas G12D mutant: % inh. ([3]; Table 7): A (A = 1-25% inhibition) | KRas G12D mutant: % inh. ([3]; Table 8): A (A = 1-25% inhibition) | KRas G12C mutant + SOS: % inh. ([4]; with SOS): D (D = 76-100% inhibition) | KRas G12C mutant: % inh. ([4]; without SOS): B (B = 26-45% inhibition) | Rho-A + SOS: % inh. ([5]; with SOS): D (D = 76-100% inhibition) | Rho-A: % inh. ([5]; without SOS): C (C = 46-75% inhibition)
Compound: CO[C@H]1CC[C@@H](Nc2nc(-c3nccn3C)nc3sc(-c4ccn(C)n4)c(-c4ccccc4)c23)C1 (racemic) [Compound 5, rac-N-((1R,3S)-3-Methoxycyclopentyl)-2-(1-methyl-1H-imidazol-2-yl)-6-(1-methyl-1H-pyrazol-3-yl)-5-phenylthieno[2,3-d]pyrimidin-4-amine]
Activation of JNK in PANC-1 [1]: Y | Activation of MAPK p38 in PANC-1 [2]: Y
